Source: US10738045B2, “Pesticidally active heterocyclic derivatives with sulphur and cyclopropyl containing substituents” (SYNGENTA PARTICIPATIONS AG, priority 2015, dated 2020)

What was measured:
Experiment in all cases: whole plant or invertebrate
Assay type in all cases: in vivo
[1] = system: Bemisia tabaci (Cotton White Fly); conditions: foliar, 144 h, application rate of 200 ppm, cotton leaf discs, adult white flies, 6 days after incubation
Method: Cotton leaf discs were placed on agar in 24-well microtiter plates and sprayed with aqueous test solutions prepared from 10,000 ppm DMSO stock solutions. After drying the leaf discs were infested with adult white flies. The samples were checked for mortality 6 days after incubation.

[2] = system: Diabrotica balteata (Corn Root Worm); conditions: 96 h, application rate of 200 ppm, L2 larvae, 4 days after infestation, read-out: effect in at least one of the two categories (mortality or growth inhibition)
Method: Maize sprouts placed onto an agar layer in 24-well microtiter plates were treated with aqueous test solutions prepared from 10,000 ppm DMSO stock solutions by spraying. After drying, the plates were infested with L2 larvae (6 to 10 per well). The samples were assessed for mortality and growth inhibition in comparison to untreated samples 4 days after infestation.

[3] = system: Euschistus heros (Neotropical Brown Stink Bug); conditions: in Glycine max, 120 h, application rate of 200 ppm, N2 nymphs, 5 days after infestation, read-out: effect in at least one of the two categories (mortality or growth inhibition)
Method: Soybean leaves on agar in 24-well microtiter plates were sprayed with aqueous test solutions prepared from 10,000 ppm DMSO stock solutions. After drying the leaves were infested with N2 nymphs. The samples were assessed for mortality and growth inhibition in comparison to untreated samples 5 days after infestation.

[4] = system: Frankliniella occidentalis (Western Flower Thrips); conditions: foliar, 168 h, application rate of 200 ppm, sunflower leaf discs, population of mixed ages, 7 days after infestation
Method: (§1) Sunflower leaf discs were placed on agar in 24-well microtiter plates and sprayed with aqueous test solutions prepared from 10,000 DMSO stock solutions. After drying the leaf discs were infested with a Frankliniella population of mixed ages. The samples were assessed for mortality 7 days after infestation.

[5] = system: Myzus persicae (Green Peach Aphid); conditions: foliar, 144 h, application rate of 200 ppm, sunflower leaf discs, population of mixed ages, 6 days after infestation
Method: Sunflower leaf discs were placed onto agar in a 24-well microtiter plate and sprayed with aqueous test solutions prepared from 10,000 ppm DMSO stock solutions. After drying, the leaf discs were infested with an aphid population of mixed ages. The samples were assessed for mortality 6 days after infestation.

[6] = system: Plutella xylostella (Diamond Back Moth); conditions: 120 h, application rate of 200 ppm, L2 larvae, 5 days after infestation, read-out: effect in at least one of the two categories (mortality or growth inhibition)
Method: 24-well microtiter plates with artificial diet were treated with aqueous test solutions prepared from 10,000 ppm DMSO stock solutions by pipetting. After drying, the plates were infested with L2 larvae (10 to 15 per well). The samples were assessed for mortality and growth inhibition in comparison to untreated samples 5 days after infestation.

[7] = system: Spodoptera littoralis (Egyptian Cotton Leaf Worm); conditions: foliar, 72 h, application rate of 200 ppm, L1 larvae, 3 days after infestation, read-out: control (mortality, anti-feeding effect or growth inhibition)
Method: Cotton leaf discs were placed onto agar in 24-well microtiter plates and sprayed with aqueous test solutions prepared from 10,000 ppm DMSO stock solutions. After drying the leaf discs were infested with five L1 larvae. The samples were assessed for mortality, anti-feeding effect, and growth inhibition in comparison to untreated samples 3 days after infestation.

[8] = system: Spodoptera littoralis (Egyptian Cotton Leaf Worm); conditions: 144 h, test rate of 12.5 ppm, lettuce grown on treated agar, 6 days after infestation, read-out: effect in at least one of the three categories (mortality, anti-feeding, or growth inhibition)
From the text: Test compounds were applied by pipette from 10,000 ppm DMSO stock solutions into 24-well plates and mixed with agar. Lettuce seeds were placed onto the agar and the multi well plate was closed by another plate which contained also agar. After 7 days the compound was absorbed by the roots and the lettuce grew into the lid plate. The lettuce leaves were then cut off into the lid plate. Spodoptera eggs were pipetted through a plastic stencil onto a humid gel blotting paper and the lid plate was closed with it. The samples were assessed for mortality, anti-feedant effect and growth inhibition in comparison to untreated samples 6 days after infestation.

[9] = system: Thrips tabaci (Onion Thrips); conditions: foliar, 144 h, application rate of 200 ppm, sunflower leaf discs, population of mixed ages, 6 days after infestation
Method: as §1, with “10,000 ppm” for “10,000”, “thrips” for “Frankliniella”, “6” for “7”

[10] = system: Myzus persicae (Green Peach Aphid); conditions: 144 h, test rate of 24 ppm, roots of pea seedlings in test solution, 6 days
Method: Roots of pea seedlings infested with an aphid population of mixed ages were placed directly into aqueous test solutions prepared from 10,000 DMSO stock solutions. The samples were assessed for mortality 6 days after placing seedlings into test solutions.

[11] = system: Tetranychus urticae (Two-Spotted Spider Mite); conditions: foliar, 192 h, application rate of 200 ppm, bean leaf discs, mixed population (mobile stages), 8 days after infestation
Method: Bean leaf discs on agar in 24-well microtiter plates were sprayed with aqueous test solutions prepared from 10,000 ppm DMSO stock solutions. After drying the leaf discs were infested with a mite population of mixed ages. The samples were assessed for mortality on mixed population (mobile stages) 8 days after infestation.

CCS(=O)(=O)c1cc(-c2cc(F)cc(F)c2)cnc1-c1nc2cc(C(F)(F)F)n(C3CC3)c(=O)c2n1C [Compound A6, 5-cyclopropyl-2-[5-(3,5-difluorophenyl)-3-ethylsulfonyl-2-pyridyl]-3-methyl-6-(trifluoromethyl)imidazo[4,5-c]pyridin-4-one]
≥ 80%: mortality at 200 ppm [1] | percent effect (mortality or growth inhibition) at 200 ppm [2] | percent effect (mortality or growth inhibition) at 200 ppm [3] | mortality at 200 ppm [4] | mortality at 200 ppm [5] | percent effect (mortality or growth inhibition) at 200 ppm [6] | percent control (mortality, anti-feedant effect or growth inhibition) at 200 ppm [7] | percent effect (mortality, anti-feeding or growth inhibition) at 12.5 ppm [8] | mortality at 200 ppm [9]

CCS(=O)(=O)c1cc(-c2cc(C(F)(F)F)ccn2)cnc1-c1nc2cc(C(F)(F)F)n(C3CC3)c(=O)c2n1C [Compound A7, 5-cyclopropyl-2-[3-ethylsulfonyl-5-[4-(trifluoromethyl)-2-pyridyl]-2-pyridyl]-3-methyl-6-(trifluoromethyl)imidazo[4,5-c]pyridin-4-one]
≥ 80%: mortality at 200 ppm [1] | percent effect (mortality or growth inhibition) at 200 ppm [2] | percent effect (mortality or growth inhibition) at 200 ppm [3] | mortality at 200 ppm [4] | mortality at 200 ppm [5] | percent effect (mortality or growth inhibition) at 200 ppm [6] | percent control (mortality, anti-feedant effect or growth inhibition) at 200 ppm [7]

CCS(=O)(=O)c1cc(C2(C#N)CC2)cnc1-c1nc2cc(C(F)(F)F)n(C3CC3)c(=O)c2n1C [Compound A31, 1-[6-[5-cyclopropyl-3-methyl-4-oxo-6-(trifluoromethyl)imidazo[4,5-c]pyridin-2-yl]-5-ethylsulfonyl-3-pyridyl]cyclopropanecarbonitrile]
≥ 80%: mortality at 200 ppm [1] | percent effect (mortality or growth inhibition) at 200 ppm [2] | percent effect (mortality or growth inhibition) at 200 ppm [3] | mortality at 200 ppm [4] | mortality at 200 ppm [5] | mortality at 24 ppm [10] | percent effect (mortality or growth inhibition) at 200 ppm [6] | percent control (mortality, anti-feedant effect or growth inhibition) at 200 ppm [7] | percent effect (mortality, anti-feeding or growth inhibition) at 12.5 ppm [8] | mortality at 200 ppm [11] | mortality at 200 ppm [9]

CCS(=O)(=O)c1cc(C(F)(F)F)cnc1-c1nc2cc(C(F)(F)F)n(C3CC3)c(=O)c2n1C [Compound A1, 5-cyclopropyl-2-[3-ethylsulfonyl-5-(trifluoromethyl)-2-pyridyl]-3-methyl-6-(trifluoromethyl) imidazo[4,5-c]pyridin-4-one]
≥ 80%: mortality at 200 ppm [1] | percent effect (mortality or growth inhibition) at 200 ppm [2] | percent effect (mortality or growth inhibition) at 200 ppm [3] | mortality at 200 ppm [4] | mortality at 200 ppm [5] | percent effect (mortality or growth inhibition) at 200 ppm [6] | percent control (mortality, anti-feedant effect or growth inhibition) at 200 ppm [7] | percent effect (mortality, anti-feeding or growth inhibition) at 12.5 ppm [8] | mortality at 200 ppm [9]

CCS(=O)(=O)c1cc(-n2ccc(C(F)(F)F)n2)cnc1-c1nc2cc(C(F)(F)F)n(C3CC3)c(=O)c2n1C [Compound A3, 5-cyclopropyl-2-[3-ethylsulfonyl-5-[3-(trifluoromethyl)pyrazol-1-yl]-2-pyridyl]-3-methyl-6-(trifluoromethyl)imidazo[4,5-c]pyridin-4-one]
≥ 80%: percent effect (mortality or growth inhibition) at 200 ppm [2] | percent effect (mortality or growth inhibition) at 200 ppm [3] | percent effect (mortality or growth inhibition) at 200 ppm [6] | percent control (mortality, anti-feedant effect or growth inhibition) at 200 ppm [7]

CCS(=O)(=O)c1cc(-n2cnc(Cl)n2)cnc1-c1nc2cc(C(F)(F)F)n(C3CC3)c(=O)c2n1C [Compound A34, 2-[5-(3-chloro-1,2,4-triazol-1-yl)-3-ethylsulfonyl-2-pyridyl]-5-cyclopropyl-3-methyl-6-(trifluoromethyl)imidazo[4,5-c]pyridin-4-one]
≥ 80%: percent effect (mortality or growth inhibition) at 200 ppm [2] | percent effect (mortality or growth inhibition) at 200 ppm [3] | mortality at 200 ppm [4] | mortality at 200 ppm [5] | percent effect (mortality or growth inhibition) at 200 ppm [6] | percent control (mortality, anti-feedant effect or growth inhibition) at 200 ppm [7] | percent effect (mortality, anti-feeding or growth inhibition) at 12.5 ppm [8]

CCS(=O)(=O)c1cc(Br)cnc1-c1nc2cc(C(F)(F)F)n(C3CC3)c(=O)c2n1C [Compound A5, 2-(5-bromo-3-ethylsulfonyl-2-pyridyl)-5-cyclopropyl-3-methyl-6-(trifluoromethyl)imidazo[4,5-c]pyridin-4-one]
≥ 80%: mortality at 200 ppm [1] | percent effect (mortality or growth inhibition) at 200 ppm [2] | percent effect (mortality or growth inhibition) at 200 ppm [3] | mortality at 200 ppm [5] | percent effect (mortality or growth inhibition) at 200 ppm [6] | percent control (mortality, anti-feedant effect or growth inhibition) at 200 ppm [7] | percent effect (mortality, anti-feeding or growth inhibition) at 12.5 ppm [8] | mortality at 200 ppm [9]
